# Like-named read-outs stand apart in the source and are kept apart here.
# Columns and labels:
# Format in all cases: cell-based
# specific MG-derived AGE = assay: Detection of the specific MG-derived AGE by Western blot with mAb6B, densitometry of the ECL signal
# Description: L929 cells were seeded 48 hours prior to the experiment. TNF incubations (1000 U/ml) were done in the presence of CHX to synchronize cell death. After TNF incubations (1.5 hours or 2.5 hours), the cells were rinsed three times with ice-cold PBS buffer and cell lysates were prepared in a CHAPS-containing cytosol extraction buffer (Guy et al., 1992). […] To use the antibody sparingly, SDS-PAGE gels were only run over a distance of 5 cm.
# L929 cells = tested on: L929 cells
# Description: Murine TNF (mTNF) was obtained from Roche Diagnostics and was used at 1000 IU/ml unless indicated otherwise. Propidium iodide (PI) and cycloheximide (CHX) (all from Sigma) were used at concentrations of 30 μM and 50 μg/ml, respectively.
# Cell death in L929 was induced by addition of TNF to the cell suspension. Cell death was measured by quantifying PI-positive cells by FACS (FACSCalibur, Becton Dickinson, San Jose, Calif.). The PI dye was excited with an argon-ion laser at 488 nm; PI fluorescence was measured above 590 nm using a long-pass filter. Routinely, 3,000 cells were analyzed. Cell death is expressed as the percentage of PI-positive cells in the total cell population.
# glyoxalase I = molecular target: T1, glyoxalase I (Mus musculus, UniProt Q9CPU0); assay: TNF-induced phosphorylation of glyoxalase I (32P labeling, 2-D gels, Western blot with anti-human glyoxalase I antibody)
# T1 construct: TNF-induced phosphorylation of endogeneous glyoxalase I in L929 cells; endogenous in cells; host or cells: L929 cells
# T1 sequence (Q9CPU0 2-184 limits assumed): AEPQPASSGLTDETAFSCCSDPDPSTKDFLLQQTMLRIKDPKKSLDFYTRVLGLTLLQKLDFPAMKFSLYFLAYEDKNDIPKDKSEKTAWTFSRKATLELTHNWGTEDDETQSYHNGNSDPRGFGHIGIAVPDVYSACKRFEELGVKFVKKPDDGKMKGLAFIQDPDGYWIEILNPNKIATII
# Description: L929 cells were plated 48 hours prior to the experiment. ^32P labeling was carried out as described in (Guy et al., 1992). TNF treatments (1000 IU/ml, 1.5 hours) were done in the presence of cycloheximide (CHX), to synchronize cell death. To simplify the 2-D phosphoprotein pattern and subsequent computer-assisted analysis, we prepared two subcellular protein fractions. The cytosolic protein fraction, containing soluble cytoplasmic molecules and molecules derived from single-membrane organelles, was obtained as the supernatant from digitonin (0.03%)-permeabilized cells. After rinsing once with excess PBS buffer, the remaining cell fraction was lysed in a CHAPS (2%)-containing buffer as described in (Guy et al., 1992). This lysate was then centrifuged (20,000 g) and the supernatant was used as the organelle fraction; it is enriched for mitochondrial and cytoskeleton-derived proteins.
# Isoelectric focusing. […] Protein samples were precipitated with ethanol and redissolved in lysis buffer.
# SDS-PAGE. The second dimension (SDS-PAGE) was run on large vertical gels (12.5% acrylamide, Biorad).
# Proteins were separated by SDS-PAGE (12.5%) and transferred to a PVDF membrane (Hybond-P, Amersham Pharmacia Biotech). […]
# [1] = L929 cells pretreated (BBGD 20 μM; H89 5 μM), after 1.5 hours of TNF treatment
# [2] = L929 cells pretreated (BBGD 20 μM; H89 5 μM), after 2.5 hours of TNF treatment
compound,measurement,setting,value
"COc1ccc(O)c(C(C)(C)C)c1 [BHA, butylated hydroxyanisole]",reduction of formation of the specific MG-derived AGE,"specific MG-derived AGE; TNF 1000 U/ml + CHX, 2.5 hours, BHA 100 μM given 0.5 hour after TNF",65%
N=C(N)NN [aminoguanidine],inhibition of TNF-induced cell death,"L929 cells; 16 hours TNF 20 U/ml, 400 μM",15%
same,maximum inhibition of TNF-induced cell death,"L929 cells; 16 hours TNF 20 U/ml, 600 or 800 μM",25%
"CC(=O)C=O [MG, methylglyoxal]",effect of exogeneously added MG on TNF-induced cell death,"L929 cells; 5.5 hours incubation with TNF and methylglyoxal, concentration-dependent",strongly synergistic
"NC(CCC(=O)NC(CSCc1ccc(Br)cc1)C(=O)NCC(=O)OC1CCCC1)C(=O)OC1CCCC1 (stereo not shown) [BBGD, s-p-bromobenzylglutathione cyclopentyl diester]",effect on TNF-induced phosphorylation of GLO1,"glyoxalase I; cells preincubated with the inhibitor for 1 hour 10 minutes, 2-D gels pH 3–10",inhibits the TNF-induced phosphorylation of GLO1
same,reduction of formation of the specific MG-derived AGE,specific MG-derived AGE; [1],50%
same,reduction of formation of the specific MG-derived AGE,specific MG-derived AGE; [2],10%
same,increase in TNF-induced cell death (synergistic effect),"L929 cells; inhibitor and TNF added at the same time, 20 μM",50%
same,inhibition of TNF-induced cell death,"L929 cells; preincubation 1 hour 10 minutes with inhibitor, 20 μM",60%
O=CC[C@@H](O)[C@H](O)[C@H](O)CO [2-deoxyglucose],inhibition of formation of the specific MG-derived AGE,"specific MG-derived AGE; TNF 1000 U/ml + CHX, 2.5 hours, 2-deoxyglucose 2:1 ratio to glucose, given with TNF",65%
same,inhibition of TNF-induced cell death,L929 cells; 2-deoxyglucose 2:1 ratio to glucose,65%
O=S(=O)(NCCNC/C=C/c1ccc(Br)cc1)c1cccc2cnccc12 [H89],effect on induction of the more acidic (phosphorylated) isoform of glyoxalase I by TNF,"glyoxalase I; L929 cells, pretreatment, 5 μM",completely abolished
same,reduction of formation of the specific MG-derived AGE,specific MG-derived AGE; [1],70%
same,reduction of formation of the specific MG-derived AGE,specific MG-derived AGE; [2],20%
same,effect on TNF-induced cell death,"L929 cells; pretreatment 2 hours, 1 μM",inhibitory effect
same,inhibition of TNF-induced cell death,"L929 cells; pretreatment 2 hours, 5 μM",> 50%

# Reference: patent US7198931B2, “Phosphorylated glyoxalase I and its use” (Vlaams Interuniversitair Instituut voor Biotechnologie VZW, priority 2001, dated 2007)
